Assay results from ChEMBL document CHEMBL3102825, “Exploration of a series of 5-arylidene-2-thioxoimidazolidin-4-ones as inhibitors of the cytolytic protein perforin” (J Med Chem, 2013).

assay: Aqueous solubility of the compound; format: physicochemical

| Compound | solubility |
| --- | --- |
| CCOC(=O)N1Cc2cc(-c3ccc(/C=C4/[N-]C(=S)NC4=O)s3)ccc2C1=O.[Na+] | 397 µg/mL |
| O=C1NC(=S)[N-]/C1=C/c1ccc(-c2ccc3c(c2)COC3=O)s1.[Na+] | 43 µg/mL |
| O=C1NC(=S)[N-]/C1=C/c1ccc(-c2ccc3c(c2)CCNC3=O)s1.[Na+] | 1570 µg/mL |
| CC1c2cc(-c3ccc(/C=C4/[N-]C(=S)NC4=O)s3)ccc2C(=O)N1C.[Na+] (stereo not given) | 1410 µg/mL |
| O=C1NC(=S)[N-]/C1=C/c1ccc(-c2ccc3c(c2)CN(CCCO)C3=O)s1.[Na+] | 10200 µg/mL |
| CN1Cc2cc(-c3ccc(/C=C4/[N-]C(=S)NC4=O)s3)ccc2C1=O.[Na+] | 151 µg/mL |

The remaining lines, values ahead:

| solubility | Compound |
| --- | --- |
| 37.2 µg/mL | O=C1NC(=S)[N-]/C1=C/c1ccc(-c2ccc3c(c2)C(=O)NCC3)s1.[Na+] |
| 140 µg/mL | O=C1NC(=S)[N-]/C1=C/c1ccc(-c2ccc3c(c2)CNC3=O)s1.[Na+] |
| 3430 µg/mL | O=C1NC(=S)[N-]/C1=C/c1ccc(-c2ccc3c(c2)CN(CCO)C3=O)s1.[Na+] |
| 136 µg/mL | O=C1[N-]/C(=C/c2ccc(-c3ccc4c(c3)CNC4=O)s2)C(=O)N1.[Na+] |
